Drawing on US20230069963A1, “PYRAZOLO[1,5-A]PYRIMIDINE MACROCYCLIC COMPOUND” (priority 2018, published 2023), this text covers EC50 for 22 compounds.

Structures can show the parent of a compound that is named as a salt.

One test relates to RSV ATCC VR-1540 (A2). Kind of test: microbe, parasite or virus in culture. The conditions noted are these: Hep2 cells, incubated for 4 days, CPE detected with XTT assay (absorbance 450 nm); read-out: EC50 (nmol/L) against RSV A2 strain. In kind it is cell-based. In general terms: Tetrazolium dyes change colour on reduction, which living cells bring about.
With “(23aS)-18-(azetidin-1-yl)-8-fluoro-16-methyl-1,3,4,11,12,13,14,15,16,23a-decahydro-2H,6H-23,20-(metheno)pyrido[1,2-b]pyrimido[1,6-f][2,5,6,8,11]benzopentaazacyclopentadecin-6-one [Example 148]”, the EC50 is 28.9 nmol/L. Same read-out and setting: to “(18aS)-13-(azetidin-1-yl)-2-fluoro-7-(hydroxymethyl)-11-methyl-6,7,8,9,10,11,19,20,21,22-decahydro-18aH,24H-18,15-(metheno)pyrido[2,1-l]pyrimido[6,1-h][1,4,7,9,10,13]benzoxapentaazacyclohexadecin-24-one [Example 146]” belongs 20.8 nmol/L.

Staying with this test, now noted: human respiratory syncytial virus, HEp-2, 96 h; Hep2 cells, incubated for 4 days, CPE detected with XTT assay (absorbance 450 nm); read-out: EC50 (nmol/L) against RSV A2 strain.
Take `Cc1ccc2c(c1)C(=O)N1CCCC[C@H]1c1cc3nc(N4CCC4)cc(n3n1)N(C)CCN(C)CCO2` [Example 173, (18aS)-13-(azetidin-1-yl)-2,8,11-trimethyl-6,7,8,9,10,11,19,20,21,22-decahydro-18aH,24H-18,15-(metheno)pyrido[2,1-l]pyrimido[6,1-h][1,4,7,9,10,13]benzoxapentaazacyclohexadecin-24-one]: the EC50 stood at 1.3 nmol/L. On the same count and under the same terms, to `CCN1CCN(C)c2cc(N3CC(N)C3)nc3cc(nn23)[C@@H]2CCCCN2C(=O)c2cc(F)ccc2OCC1=O` [Example 9, (18aS)-13-(3-aminoazetidin-1-yl)-8-ethyl-2-fluoro-11-methyl-8,9,10,11,19,20,21,22-octahydro-18aH,24H-18,15-(metheno)pyrido[2,1-l]pyrimido[6,1-h][1,4,7,9,10,13]benzoxapentaazacyclohexadecine-7,24(6H)-dione] belongs 6.34 nmol/L. With `CN1CCCCOc2cccc(F)c2C(=O)N2CCCCC2c2cc3nc(N4CCC(N)C4)cc1n3n2` [Example 249, (23aS)-18-[(3S)-3-aminopyrrolidin-1-yl]-7-fluoro-16-methyl-1,3,4,13,14,15,16,23a-octahydro-2H,6H,12H-23,20-(metheno)pyrido[2,1-k]pyrimido[6,1-g][1,6,8,9,12]benzoxatectraazacyclopentadecin-6-one], the EC50 stood at 2.7 nmol/L. For `CN1CCNCCOc2ccc(F)cc2C(=O)N2CCCC[C@H]2c2cc3nc(N4CCC4)cc1n3n2` [Example 133, (18aS)-13-(azetidin-1-yl)-2-fluoro-11-methyl-6,7,8,9,10,11,19,20,21,22-decahydro-18aH,24H-18,15-(metheno)pyrido[2,1-l]pyrimido[6,1-h][1,4,7,9,10,13]benzoxapentaazacyclohexadecin-24-one], the EC50 worked out at 1.36 nmol/L. On the same count and under the same terms, to `Cc1c(NCCN)nc2cc3nn2c1N(C)CCCS(=O)(=O)Nc1ccc(Cl)cc1C(=O)N1CCCC[C@@H]31` [Example 327, (23aS)-18-[(2-aminoethyl)amino]-8-chloro-16,17-dimethyl-1,3,4,13,14,15,16,23a-octahydro-2H,6H-23,20-(metheno)-12λ^6-pyrido[2,1-k]pyrimido[6,1-g][2,1,6,8,9,12]benzothiapentaazacyclopentadecine-6,12,12(11H)-trione] belongs 1.72 nmol/L; to `Cc1ccc2c(c1)C(=O)N1CCCC[C@H]1c1cc3nc(NCCN)cc(n3n1)N(C)CCN(S(C)(=O)=O)CCO2` [Example 182, (18aS)-13-[(2-aminoethyl)amino]-8-(methanesulfonyl)-2,11-dimethyl-6,7,8,9,10,11,19,20,21,22-decahydro-18aH,24H-18,15-(metheno)pyrido[2,1-l]pyrimido[6,1-h][1,4,7,9,10,13]benzoxapentaazacyclohexadecin-24-one hydrochloride], 14.2 nmol/L. Same read-out and setting: then `[2H]C([2H])([2H])N1CCNC(=O)COc2ccc(F)cc2C(=O)N2CCCC[C@H]2c2cc3nc(C4CC4)cc1n3n2` [Example 94, (18aS)-13-cyclopropyl-2-fluoro-11-trideuteriomethyl-8,9,10,11,19,20,21,22-octahydro-18aH, 24H-18,15-(metheno)pyrido[2,1-l]pyrimido[6,1-h][1,4,7,9,10,13]benzoxapentaazacyclohexadecine-7,24(6H)-dione], with 0.207 nmol/L; and `CN1CCCCOc2ccc(Cl)cc2C(=O)N2CCCCC2c2cc3nc(N4CC[C@H](N)C4)cc1n3n2` (stereo partly drawn) [Example 254, (23aS)-18-[(3S)-3-aminopyrrolidin-1-yl]-8-chloro-16-methyl-1,3,4,13,14,15,16,23a-octahydro-2H,6H,12H-23,20-(metheno)pyrido[2,1-k]pyrimido[6,1-g][1,6,8,9,12]benzoxatetraazacyclopentadecin-6-one], with 3.28 nmol/L; and `CCC1c2cc3nc(N4CCC(N)C4)cc(n3n2)N(C)CCCCCOc2ccc(C)cc2C(=O)N1C` (stereo in doubt) [Example 230, (18S)-3-[(3S)-3-aminopyrrolidin-1-yl]-18-ethyl-5,14,17-trimethyl-5,6,7,8,9,10,17,18-octahydro-16H-19,1-(metheno)pyrimido[6,1-h][1,7,9,10,13]benzoxatetraazacyclohexadecin-16-one], with 11.8 nmol/L. The same measure, in the same setting: then `CN1CCOc2ccc(Cl)cc2C(=O)N2CCCC[C@H]2c2cc3nc(N4CC(F)C4)cc(n3n2)N(C)CC1` [Example 162, (18aS)-2-chloro-13-(3-fluoroazetidin-1-yl)-8,11-dimethyl-6,7,8,9,10,11,19,20,21,22-decahydro-18aH,24H-18,15-(metheno)pyrido[2,1-l]pyrimido[6,1-h][1,4,7,9,10,13]benzoxapentaazacyclohexadecin-24-one], with 4.51 nmol/L; and `Cc1ccc2c(c1)C(=O)N1CCCC[C@H]1c1cc3nc(NCCN)cc(n3n1)N(C)CCCCO2` [Example 245, (23aS)-18-[(2-aminoethyl)amino]-8,16-dimethyl-1,3,4,13,14,15,16,23a-octahydro-2H,6H,12H-23,20-(metheno)pyrido[2,1-k]pyrimido[6,1-g][1,6,8,9,12]benzoxatetraazacyclopentadecin-6-one hydrochloride], with 4.71 nmol/L. As to `Cc1ccc2c(c1)C(=O)N1CCCC[C@H]1c1cc3nc(N4CC(O)C4)cc(n3n1)N(C)CCN(S(C)(=O)=O)CCO2` [Example 179, (18aS)-13-(3-hydroxyazetidin-1-yl)-8-(methanesulfonyl)-2,11-dimethyl-6,7,8,9,10,11,19,20,21,22-decahydro-18aH,24H-18,15-(metheno)pyrido[2,1-l]pyrimido[6,1-h][1,4,7,9,10,13]benzoxapentaazacyclohexadecin-24-one], the EC50 turned out to be 7.33 nmol/L. On the same count and under the same terms, then `CCc1ccc2c(c1)C(=O)N1CCCC[C@H]1c1cc3nc(OCCN)cc(n3n1)N(C)CCNC(=O)CO2` [Example 50, (18aS)-13-(2-aminoethoxy)-2-ethyl-1-methyl-8,9,10,11,19,20,21,22-octahydro-18aH,24H-18,15-(metheno)pyrido[2,1-l]pyrimido[6,1-h][1,4,7,9,10,13]benzoxapentaazacyclohexadecine-7,24(6H)-dione], with 2.18 nmol/L; and `CCC1c2cc3nc(N4CC[C@H](N)C4)cc(n3n2)N(C)CCCCOc2ccccc2C(=O)N1C` (stereo partly drawn) [Example 213, (17S)-3-[(3S)-3-aminopyrrolidin-1-yl]-17-ethyl-5,16-dimethyl-6,7,8,9,16,17-hexahydro-5H,15H-18,1-(metheno)pyrimido[6,1-g][1,6,8,9,12]benzoxatetraazacyclopentadecin-S5-one], with 7.81 nmol/L. For `Cc1c(N2CCC(N)C2)nc2cc3nn2c1NCCCCOc1ccc(Cl)cc1C(=O)N1CCCCC31` [Example 283, (23aS)-18-[(3S)-3-aminopyrrolidin-1-yl]-8-chloro-17-methyl-1,3,4,13,14,15,16,23a-octahydro-2H,6H,12H-23,20-(metheno)pyrido[2,1-k]pyrimido[6,1-g][1,6,8,9,12]benzoxatetraazacyclopentadecin-6-one], the EC50 was 6.28 nmol/L.

The subject of another test is F protein D486N mutant strain of RSV A2 strain.
Experiment: not given
Particulars: Hep2 cells, incubated for 4 days, CPE detected with XTT assay (absorbance 450 nm); read-out: EC50 (nmol/L) against F protein D486N mutant strain of RSV A2 strain. The class given is cell-based, respiratory syncytial virus (RSV).
For the compound `[2H]C([2H])([2H])c1ccc2c(c1)C(=O)N1CCCC[C@H]1c1cc3nc(N4CC(O)C4)cc(n3n1)N(C)CCNC(=O)CO2` [Example 53, (18aS)-13-(3-hydroxyazetidin-1-yl)-1-methyl-2-trideuteriomethyl-8,9,10,11,19,20,21,22-octahydro-18aH,24H-18,15-(metheno)pyrido[2,1-l]pyrimido[6,1-h][1,4,7,9,10,13]benzoxapentaazacyclohexadecine-7,24(6H)-dione], the EC50 was determined as 1.05 nmol/L. For “(18aS)-13-(trans-3-hydroxycyclobutyl)-11-methyl-2-trideuteriomethyl-8,9,10,11,19,20,21,22-octahydro-18aH,24H-18,15-(metheno)pyrido[2,1-l]pyrimido[6,1-h][1,4,7,9,10,13]benzoxapentaazacyclohexadecine-7,24(6H)-dione [Example 118t]”, the EC50 is 0.72 nmol/L. Same read-out and setting: then `CN1CCn2ccnc2COc2ccc(Cl)cc2C(=O)N2CCCC[C@H]2c2cc3nc(N4CC(N)C4)cc1n3n2` [Example 335, (20aS)-15-(3-amninoazetidin-1-yl)-2-chloro-13-methyl-12,13,21,22,23,24-hexahydro-6H,11H, 20aH,26H-20,17-(metheno)imidazo[2,1-c]pyrido[2,1-l]pyrimido[6,1-h][1,4,7,9,10,13]benzoxapentaazacyclohexadecin-26-one], with 10.6 nmol/L; and `CN1CCNC(C(F)(F)F)COc2ccc(Cl)cc2C(=O)N2CCCCC2c2cc3nc(N4CC(N)C4)cc1n3n2` (single isomer, unassigned) [Example 339], with 4.11 nmol/L. Same read-out and setting: to `CN1CCNC(=O)COc2ccc(F)cc2C(=O)N2CCCC[C@H]2c2cc3nc(C4CC4)cc1n3n2` [Example 90, (18aS)-13-cyclopropyl-2-fluoro-11-methyl-8,9,10,11,19,20,21,22-octahydro-18aH,24H-18,15-(metheno)pyrido[2,1-l]pyrimido[6,1-h][1,4,7,9,10,13]benzoxapentaazacyclohexadecine-7,24(6H)-dione] belongs 2.8 nmol/L.
